This is an account of results in article PMC5915369 (Anticancer research, 2015).

Data set [1] relates to HIF1α transcriptional activity. Type of data set: cell-based. Conditions: Homo sapiens, 24 h, read-out: Menu IC50 ± SEM.
Data set [2] relates to platelet aggregation. Particulars: could lead to internal bleeding side effects; cited from earlier work.

Consider `CN1C(=O)[C@]2(Cc3cn([C@]45C[C@@]67SS[C@@](CO)(C(=O)N6[C@H]4Nc4ccccc45)N(C)C7=O)c4ccccc34)SS[C@@]1(CO)C(=O)N2C` [Chetomin], for which the 50% inhibitory concentration (IC50) in data set [1] was 40 ± 10 nM.

Take `OCc1ccc(-c2nn(Cc3ccccc3)c3ccccc23)o1` [YC-1, 3-(5′-hydroxymethyl-2′-furyl)-1-benzyl indazole]: the “inhibition of platelet aggregation” value in data set [2] is reported as “strong inhibition of platelet aggregation”.

Broadly, the IC50 is the midpoint of a concentration-inhibition curve.
